These compounds were tested on Hep3B cells (hepatocellular carcinoma cell line) (assay: In vitro MTS cell viability assay (NCI-60 methodology), Hep3B). Conditions: Homo sapiens, 48 h, Table 1, MTS, 2 days drug incubation, 50% reduction vs time zero, read-out: Hep3B LC50.
Type: cell-based
How it was run: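 Following NCI-60 method, MTS viability of Hep3B measured 24 h after plating (time zero) and after a further 2-day exposure to five concentrations (2-fold series). LC50 defined where [(Ti−Tz)/Tz]×100 = −50.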

Row | Structure (SMILES) | LC50 [nM]
1 | Cn1ncc2c(NC(=O)c3ccc([N+](=O)[O-])s3)nc(C#Cc3ccc(OC(F)(F)F)cc3)nc21 [Compound 1-14, N-(1-methyl-6-((4-(trifluoromethoxy)phenyl)ethynyl)-1H-pyrazolo[3,4,d]pyrimidin-4-yl)-5-nitrothiophene-2-carboxamide] | 1670
2 | O=C(Nc1nc(-c2ccc(OC(F)(F)F)cc2)nc2c1cnn2CCN1CCC(F)(F)C1)c1ccc([N+](=O)[O-])s1 [Compound 1-32, N-(1-(2-(3,3-difluoropyrrolidin-1-yl)ethyl)-6-(4-(trifluoromethoxy)phenyl)-1H-pyrazolo[3,4-d]pyrimidin-4-yl)-5-nitrothiophene-2-carboxamide] | 770

Same assay, conditions: Homo sapiens, 48 h, Table 3, MTS, 2 days drug incubation, 50% reduction vs time zero, read-out: Hep3B LC50

Row | Structure (SMILES) | LC50 [nM]
3 | Cn1cc2nc(-c3ccc(C(C)(C)C)cc3)nc(NC(=O)c3ccc([N+](=O)[O-])s3)c2c1 [Compound 3-10, N-(2-(4-(tert-butyl)phenyl)4-methyl-6H-pyrrolo[3,4,d]pyrimidin-4-yl)-5-nitrothiophene-2-carboxamide] | 10000
4 | Cc1nn(C)c2c(NC(=O)c3ccc([N+](=O)[O-])s3)nc(-c3ccc(OC(F)(F)F)cc3)nc12 [Compound 3-3, N-(1,3-dimethyl-5-(4-(trifluoromethoxy)phenyl)-1H-pyrazolo[4,3-d]pyrimidin-7-yl)-5-nitrothiophene-2-carboxamide] | 1920

Same assay, conditions: Homo sapiens, 48 h, Table 4, MTS, 2 days drug incubation, 50% reduction vs time zero, read-out: Hep3B LC50

Row | Structure (SMILES) | LC50 [nM]
5 | O=C(Nc1nc(-c2cc(C(F)(F)F)ccc2F)nc2c(-c3ccccc3)csc12)c1ccc([N+](=O)[O-])s1 [Compound 4-17, N-(2-(2-fluoro-5-(trifluoromethyl)phenyl)-7-phenylthieno[3,2-d]pyrimidin-4-yl)-5-nitrothiophene-2-carboxamide] | 860
6 | Cc1csc2c(NC(=O)c3ccc([N+](=O)[O-])s3)nc(Oc3ccc(C(C)(C)C)cc3)nc12 [Compound 4-12, N-(2-(4-(tert-butyl)phenoxy)-7-methylthieno[3,2-d]pyrimidin-4-yl)-5-nitrothiophene-2-carboxamide] | 1340

Same assay, conditions: Homo sapiens, 48 h, Table 5, MTS, 2 days drug incubation, 50% reduction vs time zero, read-out: Hep3B LC50

Row | Structure (SMILES) | LC50 [nM]
7 | O=C(Nc1nc(-c2cc(F)c(F)c(F)c2)nc2c1cnn2-c1ccccc1)c1ccc([N+](=O)[O-])s1 [Compound 5-53, 5-nitro-N-(1-phenyl-6-(3,4,5-trifluorophenyl)-1H-pyrazolo[3,4-d]pyrimidin-4-yl)thiophene-2-carboxamide] | > 1250
8 | O=C(Nc1nc(N2CC[C@H](O)C2)nc2c1cnn2-c1ccccc1)c1ccc([N+](=O)[O-])s1 [Compound 5-4, (S)—N-(6-(3-hydroxypyrrolidin-1-yl)-1-phenyl-1H-pyrazolo[3,4-d]pyrimidin-4-yl)-5-nitrothiophene-2-carboxamide] | 1010
9 | O=C(Nc1nc(-c2cccc(C(F)(F)F)c2)nc2c1cnn2-c1ccccc1)c1ccc([N+](=O)[O-])s1 [Compound 5-38, 5-nitro-N-(1-phenyl-6-(3-(trifluoromethyl)phenyl)-1H-pyrazolo[3,4-d]pyrimidin-4-yl)thiophene-2-carboxamide] | 450
10 | CC(C)(C)c1ccc(-c2nc(NC(=O)c3ccc([N+](=O)[O-])s3)c3cnn(-c4ccccc4)c3n2)cc1 [Compound 5-37, N-(6-(4-(tert-butyl)phenyl)-1-phenyl-1H-pyrazolo[3,4-d]pyrimidin-4-yl)-5-nitrothiophene-2-carboxamide] | 780

Same assay, conditions: Homo sapiens, 48 h, Table 6, MTS, 2 days drug incubation, 50% reduction vs time zero, read-out: Hep3B LC50

Row | Structure (SMILES) | LC50 [nM]
11 | CCOc1cc(Cl)ccc1-c1nc(NC(=O)c2ccc([N+](=O)[O-])s2)c2cnn(-c3ccc(F)cc3)c2n1 [Compound 6-129, N-(6-(4-chloro-2-ethoxyphenyl)-1-(4-fluorophenyl)-1H-pyrazolo[3,4-d]pyrimidin-4-yl)-5-nitrothiophene-2-carboxamide] | > 3000
12 | CC(C)(C)c1ccc(-n2ncc3c(NC(=O)c4ccc([N+](=O)[O-])s4)nc(-n4ccnc4)nc32)cc1 [Compound 6-74, N-(1-(4-(tert-butyl)phenyl)-6-(1H-imidazol-1-yl)-1H-pyrazolo[3,4-d]pyrimidin-4-yl)-5-nitrothiophene-2-carboxamide] | 330
13 | O=C(Nc1nc(N2CCC(F)(F)C2)nc2c1cnn2-c1ccc(F)cc1)c1ccc([N+](=O)[O-])s1 [Compound 6-97, N-(6-(3,3-difluoropyrrolidin-1-yl)-1-(4-fluorophenyl)-1H-pyrazolo[3,4-d]pyrimidin-4-yl)-5-nitrothiophene-2-carboxamide] | 570
14 | COc1ccc(-n2ncc3c(NC(=O)c4ccc([N+](=O)[O-])s4)nc(C4CCC(C)(C)CC4)nc32)cc1 [Compound 6-30, N-(6-(4,4-dimethylcyclohexyl)-1-(4-methoxyphenyl)-1H-pyrazolo[3,4-d]pyrimidin-4-yl)-5-nitrothiophene-2-carboxamide] | 1320
15 | CC1(C)CCC(c2nc(NC(=O)c3ccc([N+](=O)[O-])s3)c3cnn(-c4ccc(F)cc4)c3n2)CC1 [Compound 6-145, N-(6-(4,4-dimethylcyclohexyl)-1-(4-fluorophenyl)-1H-pyrazolo[3,4-d]pyrimidin-4-yl)-5-nitrothiophene-2-carboxamide] | 890
16 | COCCN(C)c1ccc(-c2nc(NC(=O)c3ccc([N+](=O)[O-])s3)c3cnn(-c4cccc(F)c4)c3n2)cn1 [Compound 6-93] | 400
17 | COC(=O)[C@@H]1CCCN1c1nc(NC(=O)c2ccc([N+](=O)[O-])s2)c2cnn(-c3cccc(Cl)c3)c2n1 [Compound 6-32, methyl (1-(3-chlorophenyl)-4-(5-nitrothiophene-2-carboxamido)-1H-pyrazolo[3,4-d]pyrimidin-6-yl)-L-prolinate] | 560
18 | CC1CCCN(c2nc(NC(=O)c3ccc([N+](=O)[O-])s3)c3cnn(-c4ccc(C(C)(C)C)cc4)c3n2)C1 (centres unmarked) [Compound 6-64, N-(1-(4-(tert-butyl)phenyl)-6-(3-methylpiperidin-1-yl)-1H-pyrazolo[3,4-d]pyrimidin-4-yl)-5-nitrothiophene-2-carboxamide] | 1070
19 | C[C@@H]1CN(c2nc(NC(=O)c3ccc([N+](=O)[O-])s3)c3cnn(-c4ccc(F)cc4)c3n2)C[C@H](C)O1 [Compound 6-99, N-(6-((2S,6R)-2,6-dimethylmorpholino)-1-(4-fluorophenyl)-1H-pyrazolo[3,4-d]pyrimidin-4-yl)-5-nitrothiophene-2-carboxamide] | 610

Same assay, conditions: Homo sapiens, 48 h, Table 7, MTS, 2 days drug incubation, 50% reduction vs time zero, read-out: Hep3B LC50

Row | Structure (SMILES) | LC50 [nM]
20 | O=C(Nc1nc(-c2ccc(F)cc2)nc2c1cnn2-c1ccccn1)c1ccc([N+](=O)[O-])s1 [Compound 7-8, N-(6-(4-fluorophenyl)-1-(pyridin-2-yl)-1H-pyrazolo[3,4-d]pyrimidin-4-yl)-5-nitrothiophene-2-carboxamide] | 580

Same assay, conditions: Homo sapiens, 48 h, Table 8, MTS, 2 days drug incubation, 50% reduction vs time zero, read-out: Hep3B LC50

Row | Structure (SMILES) | LC50 [nM]
21 | CCOC(=O)N1CCC(n2ncc3c(NC(=O)c4ccc([N+](=O)[O-])s4)nc(-c4ccc(F)nc4)nc32)C1 [Compound 8-5, ethyl (S)-3-(6-(6-fluoropyridin-3-yl)-4-(5-nitrothiophene-2-carboxamide)-1H-pyrazolo[3,4-d]pyrimidin-1-yl)pyrrolidine-1-carboxylate] | > 2000
22 | C[C@@H]1C[C@@H](n2ncc3c(NC(=O)c4ccc([N+](=O)[O-])s4)nc(-c4ccc(F)nc4)nc32)CC(C)(C)C1 [Compound 8-14, N-(6-(6-fluoropyridin-3-yl)-1-((1R,5S)-3,3,5-trimethylcyclohexyl)-1H-pyrazolo[3,4-d]pyrimidin-4-yl)-5-nitrothiophene-2-carboxamide] | 620

Same assay, conditions: Homo sapiens, 48 h, Table 9, MTS, 2 days drug incubation, 50% reduction vs time zero, read-out: Hep3B LC50

Row | Structure (SMILES) | LC50 [nM]
23 | COCCOC(=O)N1CCC(n2ncc3c(NC(=O)c4ccc([N+](=O)[O-])s4)nc(-c4ccc(Cl)cc4)nc32)CC1 [Compound 9-12, 2-methoxyethyl 4-(6-(4-chlorophenyl)4-(5-nitrothiophene-2-carboxamido)-1H-pyrazolo[3,4-d]pyrimidin-1-yl)piperidine-1-carboxylate] | 1860

Same assay, conditions: Homo sapiens, 48 h, Table 10, MTS, 2 days drug incubation, 50% reduction vs time zero, read-out: Hep3B LC50

Row | Structure (SMILES) | LC50 [nM]
24 | CCOCCOCCOc1ccc(-c2nc(NC(=O)c3ccc([N+](=O)[O-])s3)c3cnn(C4CCCCC4)c3n2)cn1 [Compound 10-53, N-(1-cyclohexyl-6-(6-(2-(2-ethoxyethoxy)ethoxy)pyridin-3-yl)-1H-pyrazolo[3,4-d]pyrimidin-4-yl)-5-nitrothiophene-2-carboxamide] | 1230
25 | O=C(Nc1nc(-c2ccc(F)cc2)nc2c1cnn2C1CCC(F)(F)CC1)c1ccc([N+](=O)[O-])s1 [Compound 10-54, N-(1-(4,4-difluorocyclohexyl)-6-(4-fluorphenyl)-1H-pyrazolo[3,4-d]pyrimidin-4-yl)-5-nitrothiophene-2-carboxamide] | 920
26 | Cc1noc(C)c1-c1nc(NC(=O)c2ccc([N+](=O)[O-])s2)c2cnn(C3CCCCC3)c2n1 [Compound 10-9, N-(1-cyclohexyl-4-(3,5-dimethylisoxazol-4-yl)-1H-pyrazolo[3,4,d]pyrimidin-4-yl)-5-nitrothiophene-2-carboxamide] | 1070
27 | CC1(C)CCC(n2ncc3c(NC(=O)c4ccc([N+](=O)[O-])s4)nc(-c4ccc(F)cc4)nc32)CC1 [Compound 10-61] | 550
28 | CC(C)(C)c1ccc(-c2nc(NC(=O)c3ccc([N+](=O)[O-])s3)c3cnn(C4CCCCC4)c3n2)cc1 [Compound 10-35, N-(6-(4-(tert-butyl)phenyl)-1-cyclohexyl-1H-pyrazolo[3,4,d]pyrimidin-4-yl)-5-nitrothiophene-2-carboxamide] | 1330
29 | O=C(Nc1nc(N2CCC(F)(F)C2)nc2c1cnn2C1CCCCC1)c1ccc([N+](=O)[O-])s1 [Compound 10-1, N-(1-cyclohexyl-6-(3,3-difluoropyrrolidin-1-yl)-1H-pyrazolo[3,4-d]pyrimidin-4-yl)-5-nitrothiophene-2-carboxamide] | 1250

— patent US20240150356A1, “Pyrimidine amide compounds and use thereof” (ALPHALA CO., LTD., priority 2019, published 2024)
